Patent publication US6479251B1, “Colorimetric test for agents that induce mitochondrial dysfunction” (priority 1999, dated 2002)

Tests used:
Assay type in all cases: cell-based
[1] = tested on: S. cerevisiae strain YPH499; experiment: Colorimetric test: red to white colony colour change on YPD agar after treatment
Protocol: (§1) FIGS. 1A and 1B show visual color identification of mitochondrial dysfunction. The wild type S. cerevisiae YPH499 was gown in YPD (1% yeast extract, 2% bactopeptone and 2% dextrose) to log phase at 30° C. The log phase culture was centrifuged, resuspended in water containing adriamycin (150 μg/ml) for one hour. Appropriate dilutions of the culture were plated on YPD agar and incubated at 30° C. for 3-4 days. […] FIG. 1B: white colonies from treated cells in FIG. 1A wee replicated on to agar medium containing 2% dextrose (left) and 2% glycerol (right).
The wild type S. cerevisiae YPH499 was grown in YPD to log phase at 30° C. The culture was centrifuged, resuspended in water containing various concentrations of adriamycin as indicated for one hour. Appropriate dilutions of the culture were plated on YPD agar and incubated at 30° C. Colonies were counted after 3-4 days. Values presented are the average of four determinants.
FIGS. 5A, 5B, and 5C show the percentage of white colonies produced after treatment with physical or chemical agents. Exponentially growing cells were treated with various doses of UV (FIG. 5A) or various lengths of time (MMS (FIG. 5B) and H2O2 (FIG. 5C)). For UV treatment appropriate dilutions of culture were plated on YPD agar and exposed to UV using STRATALINKER (Stratagene). For MMS and H2O2 treatments, cells were exposed in liquid YPD medium.
(§2) The yeast S. cerevisiae strain YPH499 (a ura3-52, lys2-801, ade2-101, trpl-63, his3-200, leul-1) was grown in YPD to log phase. Cell were then harvested and suspended in water containing various concentration of adriamycin for one hour. In order to test whether white colonies were defective in mitochondrial function, we transferred the colonies to an agar media containing glycerol (nonfermentable carbon source). Utilization of glycerol by an eukaryotic cell requires intact mitochondrial function (2). […] The number of surviving colonies that were white reached about 30% at 150 μglml concentration.

[2] = tested on: S. cerevisiae diploid cells (white colonies x Rho0); experiment: Mating of haploid white colonies with Rho0 strain YPH 500, growth of diploids on glycerol medium; conditions: a total of 143 diploid cells from white colonies after adriamycin treatment mated with Rho0 (FIG. 4)
Protocol: FIGS. 4A and 4B show growth comparison of haploid and diploid S. cerevisiae cells. FIG. 4A: Various white colonies produced after treatment with adriamycin were streaked on YP glycerol plates. FIG. 4B: The same white colonies were mated with an opposite mating type strain of yeast lacking mitochondrial DNA on YPD plates. The diploid yeast strains were tested for growth on YP glycerol medium.
The genetic approach employed involved mating haploid white colonies generated after adriamycin treatment (shown in FIG. 2, “a” mating type) with a haploid Rho^0 strain (of opposite mating type “α” YPH 500 (ura3-52, lys2-801, ade2-101, trpl-63, his3-200, leu2-1) lacking mitDNA (3). The diploid cells (a total of 143) were tested for growth on glycerol medium. If the white cells contained a mutation in a nuclear gene affecting the mitochondrial function, it can be expected that diploid cells will grow on glycerol because a nuclear defect can be complemented with Rho^0 (because it contains intact nuclear DNA but lacks mitDNA). […] Together, these studies indicate that adriamycin preferentially damages mitDNA. This preferential damage by adriamycin can result either in complete loss of mitDNA (due to severe damage) and/or mutations in mitDNA (due to minor damage FIG. 3).

[3] = tested on: S. cerevisiae strain YPH499; experiment: Growth of white colonies on glycerol (nonfermentable carbon source) agar
Protocol: as §1, §2

[4] = tested on: mitDNA of S. cerevisiae white colonies
Protocol: FIGS. 3A-3D show mitochondrial genome changes induced by adriamycin. Various white S. cerevisiae colonies produced after treatment with adriamycin were grown to log phase and stained with DAPI, which stains DNA. FIG. 3A: wild type; FIG. 3B: a Rho^0 strain (devoid of mitochondrial genome); FIG. 3C: a representative white cell lacking mitochondrial genome; and FIG. 3D: a representative cell containing mutant mitochondrial DNA.
White S. cerevisiae colonies produced after treatment with physical or chemical agents were grown to log phase and stained with DAPI. FIG. 6A: Wild type; FIG. 6B: A Rho^0 strain; FIG. 6C: adriamycin; FIG. 6D: hydrogen peroxide; FIG. 6E: UV; FIG. 6F: Methylmethane sulfonate. For FIGS. 6C-F, the cells on the right contains mutant mitDNA and the cell on the left lacks a mitochondrial genome.
DNA was stained with a fluorescent dye, 4,6-diamidino-2-phenylindole (DAPI)(2). […] In this study, a known yeast strain lacking mitDNA (Rho^0) served as a negative control (FIG. 3B, only nuclear DNA is stained).

SMILES | increase in white colonies [1] | growth of diploid cells on glycerol medium [2] | growth of randomly chosen white colonies on glycerol plates ([3]; white colonies obtained after adriamycin treatment (FIG. 1B)) | DAPI DNA staining of white colonies (mitDNA present or lost) ([4]; white colonies obtained after adriamycin treatment (FIG. 3)) | number of surviving colonies that were white ([1]; adriamycin 150 μglml in water for one hour, plated on YPD agar, 30° C., 3-4 days) | white colonies versus dose ([1]; various concentrations of adriamycin in water for one hour (FIG. 2)) | growth of white colonies on glycerol [3] | microscopic and genetic tests of white colonies (mitDNA status) ([4]; white colonies obtained after treatment with physical or chemical agents (FIG. 6))
OO [H2O2, hydrogen peroxide] | did not result in increased white colonies |  |  |  |  |  |  | 
COc1cccc2c1C(=O)c1c(O)c3c(c(O)c1C2=O)C[C@@](O)(C(=O)CO)C[C@@H]3O[C@H]1C[C@H](N)[C@H](O)[C@H](C)O1 [adriamycin] |  | none grew on glycerol medium | none were able to grow | two types of DNA staining | about 30% | increase number of white colonies with increasing dose |  | 
COS(C)(=O)=O [MMS, methyl methane sulphonate] | did |  |  |  |  |  | do not grow on glycerol | either contained mutant mitDNA or lacked mitDNA at all
